Assay results published in US12059422B2 (MEI Pharma, Inc., priority 2011, dated 2024).

Columns and labels:
Assay type in all cases: biochemical
PI3K alpha = molecular target: T1, PI3K alpha (Homo sapiens, UniProt P42336); experiment: Luciferase-based luminescence assay (KinaseGlo), PI3K alpha enzymatic activity; conditions: inhibition of enzymatic activity, 25 μM ATP, read-out: IC50 p110α
T1 construct: purchased Invitrogen Corp., Carlsbad, CA, USA
Method: (§1) PI3K catalyzes the conversion of phosphatidylinositol-4,5-bisphosphate (PIP2) and ATP to phosphatidylinositol-3,4,5-trisphosphate (PIP3) and ADP. For all assays, the reaction buffer comprised 50 mM HEPES, pH 7.5, 3 mM MgCl2, 1 mM EGTA, 100 mM NaCl, 0.03% CHAPS and 2 mM DTT. Compounds for testing were dissolved and serially diluted in 100% DMSO (total of 10 concentrations), then diluted 1:25 in reaction buffer.
(§2) PI3K alpha and PI3K delta enzymatic activity was determined by measuring the amount of ATP consumed following the kinase reaction using a luciferase-based luminescence assay (KinaseGlo®, Promega Corp., Madison, WI, USA). PI3K enzyme solutions were prepared by diluting PI3K alpha (Invitrogen Corp., Carlsbad, CA, USA) or PI3K delta (Millipore, Billerica, MA, USA) in reaction buffer, to 4× the final assay concentration (final concentrations of enzymes were 1.65 nM and 6.86 nM for PI3K alpha and PI3K delta, respectively). A substrate solution was prepared by mixing PIP2 and ATP in reaction buffer at 2× the final assay concentration (final concentrations were 50 μM and 25 μM for PIP2 and ATP respectively). 2.5 μL each of the compound and kinase mixtures were added to individual wells of white low volume 384-well assay plates and mixed by shaking. The reactions were started by adding 5 μL of substrate mixture per well and shaking. The assay plates were covered and reactions were allowed to proceed for 1 hour (PI3K alpha) or 2 hours (PI3K delta), after which 10 μL of Kinase Glo® reagent was added. The plates were briefly centrifuged and incubated for 10 minutes, after which luminescence was measured using a FlexStation plate reader (Molecular Devices, Sunnyvale, CA, USA). IC50 values were determined by curve fitting using Graphpad Prism software (Graphpad Software, La Jolla, CA, USA).

PI3K delta = molecular target: T2, PI3K delta (Homo sapiens, UniProt O00329); experiment: Luciferase-based luminescence assay (KinaseGlo), PI3K delta enzymatic activity; conditions: for IC50: inhibition of enzymatic activity, KinaseGlo, 25 μM ATP, read-out: IC50 p110δ; for α/δ ratio: ratio of enzymatic IC50 against PI3Kα over IC50 against PI3Kδ; for β/δ ratio / γ/δ ratio: ratio of enzymatic IC50 values, Table 1
T2 construct: purchased Millipore, Billerica, MA, USA
Method: as §1, §2

PI3K beta = molecular target: T3, PI3K beta (Homo sapiens, UniProt P42338); experiment: Luciferase-based luminescence assay (ADP Glo), PI3K beta enzymatic activity; conditions: for IC50: inhibition of enzymatic activity, ADP Glo, 25 μM ATP, read-out: IC50 p110β; for α/β ratio: ratio of enzymatic IC50 values, Table 1
T3 construct: purchased Millipore, Billerica, MA, USA
Method: as §1
(§3) PI3K beta and gamma enzymatic activity was determined by measuring the amount of ADP produced following the kinase reaction using a luciferase-based luminescence assay (ADP Glo®, Promega Corp., Madison, WI, USA). PI3K enzyme solutions were prepared by diluting PI3K beta (Millipore, Billerica, MA, USA) or PI3K gamma (Invitrogen Corp., Carlsbad, CA, USA) in reaction buffer, to 4× the final assay concentration (final concentrations of enzymes were 4.8 nM and 7.6 nM for PI3K beta and PI3K gamma respectively). A substrate solution was prepared by mixing PIP2 and ATP in reaction buffer at 2× the final assay concentration (final concentrations were 50 μM and 25 μM for PIP2 and ATP respectively). 2.5 μL each of the compound and kinase mixtures were added to individual wells of white low volume 384-well assay plates and mixed by shaking. The reactions were started by adding 5 μL of substrate mixture per well and shaking. The assay plates were covered and reactions were allowed to proceed for 1 hour. Then, 5 μL of reaction mix was transferred to another white low volume 384-well plate, and 5 μL of ADP-Glo™ reagent was added. The plates were briefly centrifuged and incubated for 40 minutes, after which 10 μL of kinase detection buffer was added. The plates then were centrifuged briefly, shaken slowly and equilibrated at room temperature for 30 minutes, after which luminescence was measured using a FlexStation plate reader (Molecular Devices, Sunnyvale, CA, USA). IC50 values were determined by curve fitting using Graphpad Prism software (Graphpad Software, La Jolla, CA, USA).

PI3K gamma = molecular target: T4, PI3K gamma (Homo sapiens, UniProt P48736); experiment: Luciferase-based luminescence assay (ADP Glo), PI3K gamma enzymatic activity; conditions: inhibition of enzymatic activity, 25 μM ATP, read-out: IC50 p110γ
T4 construct: purchased Invitrogen Corp., Carlsbad, CA, USA
Method: as §1, §3

mTOR = mTOR (Homo sapiens, UniProt P42345); experiment: mTOR inhibition (Table 1); conditions: Table 1, no method described

T4 sequence (P48736 whole entry, species assumed): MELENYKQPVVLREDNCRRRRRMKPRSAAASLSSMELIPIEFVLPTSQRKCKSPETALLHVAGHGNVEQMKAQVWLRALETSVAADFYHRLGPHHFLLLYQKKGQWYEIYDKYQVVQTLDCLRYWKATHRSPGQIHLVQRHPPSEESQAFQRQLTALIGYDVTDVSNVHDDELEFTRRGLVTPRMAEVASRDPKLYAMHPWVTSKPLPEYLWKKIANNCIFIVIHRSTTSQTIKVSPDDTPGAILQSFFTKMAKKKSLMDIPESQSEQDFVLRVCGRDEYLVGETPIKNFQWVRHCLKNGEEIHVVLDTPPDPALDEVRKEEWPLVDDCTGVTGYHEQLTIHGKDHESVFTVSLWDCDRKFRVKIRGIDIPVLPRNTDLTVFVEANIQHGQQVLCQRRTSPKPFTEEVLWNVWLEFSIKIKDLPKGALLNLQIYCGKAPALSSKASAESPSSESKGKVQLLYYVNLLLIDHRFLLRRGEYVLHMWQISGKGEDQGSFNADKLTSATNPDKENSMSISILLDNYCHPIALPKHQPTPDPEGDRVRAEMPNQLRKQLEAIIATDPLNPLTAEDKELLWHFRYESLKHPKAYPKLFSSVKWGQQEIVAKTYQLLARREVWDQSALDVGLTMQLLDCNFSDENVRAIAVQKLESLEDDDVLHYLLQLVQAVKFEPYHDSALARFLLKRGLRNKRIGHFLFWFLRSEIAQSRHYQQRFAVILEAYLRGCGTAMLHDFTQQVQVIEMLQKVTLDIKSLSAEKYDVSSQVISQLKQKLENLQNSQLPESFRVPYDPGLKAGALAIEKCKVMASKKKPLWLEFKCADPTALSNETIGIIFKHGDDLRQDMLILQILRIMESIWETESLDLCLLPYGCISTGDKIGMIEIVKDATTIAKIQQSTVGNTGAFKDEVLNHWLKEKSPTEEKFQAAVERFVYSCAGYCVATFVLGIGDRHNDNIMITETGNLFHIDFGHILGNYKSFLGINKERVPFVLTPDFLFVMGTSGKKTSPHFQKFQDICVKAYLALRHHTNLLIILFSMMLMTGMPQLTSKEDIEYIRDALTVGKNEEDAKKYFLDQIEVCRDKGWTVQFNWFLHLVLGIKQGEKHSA
T1 sequence (P42336 whole entry, species assumed): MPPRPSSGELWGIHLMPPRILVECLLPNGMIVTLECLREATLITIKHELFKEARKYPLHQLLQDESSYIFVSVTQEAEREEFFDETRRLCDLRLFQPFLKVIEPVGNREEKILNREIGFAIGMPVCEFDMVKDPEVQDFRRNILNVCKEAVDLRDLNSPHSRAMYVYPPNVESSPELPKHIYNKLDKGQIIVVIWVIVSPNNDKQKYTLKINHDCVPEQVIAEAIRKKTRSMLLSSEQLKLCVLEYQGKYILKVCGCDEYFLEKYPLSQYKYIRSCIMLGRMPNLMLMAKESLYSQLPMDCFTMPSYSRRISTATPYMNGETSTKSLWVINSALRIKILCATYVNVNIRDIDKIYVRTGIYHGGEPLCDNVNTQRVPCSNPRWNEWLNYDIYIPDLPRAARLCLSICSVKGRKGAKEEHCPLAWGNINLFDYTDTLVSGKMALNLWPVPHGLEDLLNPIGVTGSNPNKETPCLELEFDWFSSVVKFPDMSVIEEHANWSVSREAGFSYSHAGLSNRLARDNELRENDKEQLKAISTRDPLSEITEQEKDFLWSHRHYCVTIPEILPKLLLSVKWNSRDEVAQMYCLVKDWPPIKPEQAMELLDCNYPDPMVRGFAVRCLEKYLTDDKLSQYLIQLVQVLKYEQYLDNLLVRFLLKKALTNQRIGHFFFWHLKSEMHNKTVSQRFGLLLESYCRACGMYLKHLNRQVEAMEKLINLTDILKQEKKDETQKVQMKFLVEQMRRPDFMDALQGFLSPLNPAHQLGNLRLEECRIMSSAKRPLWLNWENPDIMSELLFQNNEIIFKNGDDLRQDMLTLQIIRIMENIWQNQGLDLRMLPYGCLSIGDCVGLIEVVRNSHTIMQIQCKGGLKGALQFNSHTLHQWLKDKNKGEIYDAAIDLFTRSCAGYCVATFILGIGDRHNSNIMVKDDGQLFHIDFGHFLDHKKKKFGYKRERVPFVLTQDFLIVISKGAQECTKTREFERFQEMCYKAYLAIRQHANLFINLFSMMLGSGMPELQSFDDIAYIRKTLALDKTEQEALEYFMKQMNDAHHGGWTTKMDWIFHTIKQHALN
T1 sequence (P27986 whole entry partner, species assumed): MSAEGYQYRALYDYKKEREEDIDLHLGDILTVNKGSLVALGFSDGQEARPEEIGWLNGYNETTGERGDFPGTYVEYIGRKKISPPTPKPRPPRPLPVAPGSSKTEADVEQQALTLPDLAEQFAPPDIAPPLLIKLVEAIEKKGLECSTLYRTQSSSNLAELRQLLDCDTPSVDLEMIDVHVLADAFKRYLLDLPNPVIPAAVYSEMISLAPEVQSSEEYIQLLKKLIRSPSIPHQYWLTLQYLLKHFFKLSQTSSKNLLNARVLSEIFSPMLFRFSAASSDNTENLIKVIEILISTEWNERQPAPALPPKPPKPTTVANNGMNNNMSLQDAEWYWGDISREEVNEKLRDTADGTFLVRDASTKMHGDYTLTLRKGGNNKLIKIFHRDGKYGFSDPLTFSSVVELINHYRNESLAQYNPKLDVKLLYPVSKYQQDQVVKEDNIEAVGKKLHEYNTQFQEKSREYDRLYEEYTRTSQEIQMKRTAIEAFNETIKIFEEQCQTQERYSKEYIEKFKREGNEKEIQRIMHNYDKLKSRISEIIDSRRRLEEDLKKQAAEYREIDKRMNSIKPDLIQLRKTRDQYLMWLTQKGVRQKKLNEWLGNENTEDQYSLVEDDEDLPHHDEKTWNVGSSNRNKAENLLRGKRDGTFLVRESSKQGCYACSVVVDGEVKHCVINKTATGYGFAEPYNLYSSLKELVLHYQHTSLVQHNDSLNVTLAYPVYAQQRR
T2 sequence (O00329 whole entry, species assumed): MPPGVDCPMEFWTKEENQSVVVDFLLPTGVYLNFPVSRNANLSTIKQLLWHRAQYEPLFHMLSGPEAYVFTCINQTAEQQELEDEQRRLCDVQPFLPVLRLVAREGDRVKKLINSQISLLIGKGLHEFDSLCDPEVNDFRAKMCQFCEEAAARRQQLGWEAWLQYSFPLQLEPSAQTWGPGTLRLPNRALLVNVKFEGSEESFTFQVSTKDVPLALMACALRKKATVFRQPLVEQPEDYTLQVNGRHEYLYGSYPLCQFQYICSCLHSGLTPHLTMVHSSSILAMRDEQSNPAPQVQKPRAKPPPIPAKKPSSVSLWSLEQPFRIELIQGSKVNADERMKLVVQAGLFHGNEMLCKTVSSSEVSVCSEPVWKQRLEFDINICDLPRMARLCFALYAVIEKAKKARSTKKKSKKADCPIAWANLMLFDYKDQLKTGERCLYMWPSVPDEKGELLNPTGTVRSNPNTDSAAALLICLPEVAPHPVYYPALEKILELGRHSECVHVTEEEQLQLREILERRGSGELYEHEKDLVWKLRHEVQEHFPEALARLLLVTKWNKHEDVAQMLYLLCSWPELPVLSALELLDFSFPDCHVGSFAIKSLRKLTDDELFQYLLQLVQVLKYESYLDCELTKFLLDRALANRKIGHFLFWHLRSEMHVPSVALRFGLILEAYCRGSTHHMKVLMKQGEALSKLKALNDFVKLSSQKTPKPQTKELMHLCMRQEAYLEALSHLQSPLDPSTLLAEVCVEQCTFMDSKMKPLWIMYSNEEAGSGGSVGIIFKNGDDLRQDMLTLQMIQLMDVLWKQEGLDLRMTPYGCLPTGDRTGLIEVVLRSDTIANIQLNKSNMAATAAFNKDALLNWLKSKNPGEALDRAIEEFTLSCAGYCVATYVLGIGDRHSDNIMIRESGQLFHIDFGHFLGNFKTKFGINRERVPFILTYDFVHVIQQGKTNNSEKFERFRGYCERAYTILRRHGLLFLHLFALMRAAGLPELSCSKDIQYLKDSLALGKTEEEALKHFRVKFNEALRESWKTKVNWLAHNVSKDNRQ
T2 sequence (P27986 whole entry partner, species assumed): as the sequence (P27986 whole entry partner, species assumed) above
T3 sequence (P42338 whole entry, species assumed): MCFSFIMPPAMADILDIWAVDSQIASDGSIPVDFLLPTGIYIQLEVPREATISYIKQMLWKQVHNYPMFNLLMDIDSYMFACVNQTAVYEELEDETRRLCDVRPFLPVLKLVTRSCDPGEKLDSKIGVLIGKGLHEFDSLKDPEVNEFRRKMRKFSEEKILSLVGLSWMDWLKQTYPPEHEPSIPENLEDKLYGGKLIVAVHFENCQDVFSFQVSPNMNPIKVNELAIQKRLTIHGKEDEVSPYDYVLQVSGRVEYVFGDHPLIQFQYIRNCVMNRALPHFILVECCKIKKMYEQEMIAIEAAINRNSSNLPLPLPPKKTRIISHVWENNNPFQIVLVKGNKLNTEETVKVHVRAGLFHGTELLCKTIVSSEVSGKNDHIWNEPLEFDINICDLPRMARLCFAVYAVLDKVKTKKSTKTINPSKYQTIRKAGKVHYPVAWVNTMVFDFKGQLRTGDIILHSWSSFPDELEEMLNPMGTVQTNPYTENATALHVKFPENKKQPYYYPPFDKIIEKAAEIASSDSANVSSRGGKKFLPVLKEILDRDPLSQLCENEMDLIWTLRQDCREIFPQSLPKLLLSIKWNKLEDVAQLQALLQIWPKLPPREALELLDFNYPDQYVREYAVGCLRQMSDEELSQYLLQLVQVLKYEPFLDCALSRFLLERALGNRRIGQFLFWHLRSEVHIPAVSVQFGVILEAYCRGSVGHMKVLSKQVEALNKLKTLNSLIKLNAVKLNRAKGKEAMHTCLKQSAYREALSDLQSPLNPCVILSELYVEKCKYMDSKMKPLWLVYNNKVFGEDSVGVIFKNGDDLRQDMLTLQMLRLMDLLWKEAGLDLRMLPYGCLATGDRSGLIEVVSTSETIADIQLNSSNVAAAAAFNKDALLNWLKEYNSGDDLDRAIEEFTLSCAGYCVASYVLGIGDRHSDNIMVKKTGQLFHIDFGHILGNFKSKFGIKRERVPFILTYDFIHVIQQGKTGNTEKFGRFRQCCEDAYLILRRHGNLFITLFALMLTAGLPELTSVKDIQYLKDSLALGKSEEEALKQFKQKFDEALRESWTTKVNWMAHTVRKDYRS
T3 sequence (P27986 whole entry partner, species assumed): as the sequence (P27986 whole entry partner, species assumed) above

| Structure (SMILES) | IC50 (PI3K alpha) | IC50 (PI3K delta) | α/δ ratio (PI3K delta) | IC50 (PI3K beta) | α/β ratio (PI3K beta) | IC50 (PI3K gamma) | β/δ ratio (PI3K delta) | γ/δ ratio (PI3K delta) | IC50 (mTOR) |
| --- | --- | --- | --- | --- | --- | --- | --- | --- | --- |
| CC[C@H](Nc1nc(N2CCOCC2)nc(-n2c(C(F)F)nc3ccccc32)n1)c1ccccc1 [Compound A5, (S)-4-(2-(difluoromethyl)-1H-benzo[d]imidazol-1-yl)-6-morpholino-N-(1-phenylpropyl)-1,3,5-triazin-2-amine] | > 500 nM | 200 to 500 nM | C’ | > 500 nM | D’ | 100 to 200 nM | C’ | D’ | > 500 nM |
| CC[C@@H](Nc1nc(N2CCOCC2)nc(-n2c(C(F)F)nc3ccccc32)n1)c1ccccc1 [Compound A6, (R)-4-(2-(difluoromethyl)-1H-benzo[d]imidazol-1-yl)-6-morpholino-N-(1-phenylpropyl)-1,3,5-triazin-2-amine] | > 500 nM | > 500 nM | B’ | – | – | – | – | – | – |
| CC(C)(Nc1nc(N2CCOCC2)nc(-n2c(C(F)F)nc3ccccc32)n1)c1ccccc1 [Compound A7, 4-(2-(difluoromethyl)-1H-benzo[d]imidazol-1-yl)-6-morpholino-N-(2-phenylpropan-2-yl)-1,3,5-triazin-2-amine] | > 500 nM | 100 to 200 nM | C’ | > 500 nM | D’ | 200 to 500 nM | A’ | D’ | > 500 nM |
| CC(C)(Nc1nc(N2CCOCC2)nc(-n2c(C(F)F)nc3ccccc32)n1)c1ccc(Cl)cc1 [Compound A8, N-(2-(4-chlorophenyl)propan-2-yl)-4-(2-(difluoromethyl)-1H-benzo[d]imidazol-1-yl)-6-morpholino-1,3,5-triazin-2-amine] | > 500 nM | > 500 nM | C’ | – | – | – | – | – | – |
| COc1ccc(C(C)(C)Nc2nc(N3CCOCC3)nc(-n3c(C(F)F)nc4ccccc43)n2)cc1 [Compound A9, 4-(2-(difluoromethyl)-1H-benzo[d]imidazol-1-yl)-N-(2-(4-methoxyphenyl)propan-2-yl)-6-morpholino-1,3,5-triazin-2-amine] | > 500 nM | > 500 nM | D’ | – | – | – | – | – | – |
| COC(=O)[C@@H](Nc1nc(N2CCOCC2)nc(-n2c(C(F)F)nc3ccccc32)n1)c1ccccc1 [Compound A12, (S)-methyl 2-((4-(2-(difluoromethyl)-1H-benzo[d]imidazol-1-yl)-6-morpholino-1,3,5-triazin-2-yl)amino)-2-phenylacetate] | > 500 nM | 200 to 500 nM | D’ | – | – | – | – | – | – |
| CC(C)(Nc1nc(N2CCOCC2)nc(-n2c(C(F)F)nc3ccccc32)n1)c1ccc2ccccc2c1 [Compound A13, 4-(2-(difluoromethyl)-1H-benzo[d]imidazol-1-yl)-6-morpholino-N-(2-(naphthalen-2-yl)propan-2-yl)-1,3,5-triazin-2-amine] | > 500 nM | > 500 nM | A’ | – | – | – | – | – | – |
| CC(C)(Cc1ccccc1Br)Nc1nc(N2CCOCC2)nc(-n2c(C(F)F)nc3ccccc32)n1 [Compound A17, 4-(2-(difluoromethyl)-1H-benzo[d]imidazol-1-yl)-N-(1-(2-bromophenyl)-2-methylpropan-2-yl)-6-morpholino-1,3,5-triazin-2-amine] | > 500 nM | – | – | – | – | – | – | – | > 500 nM |
| CC(C)(Cc1cccc(Cl)c1)Nc1nc(N2CCOCC2)nc(-n2c(C(F)F)nc3ccccc32)n1 [Compound A20, N-(1-(3-chlorophenyl)-2-methylpropan-2-yl)-4-(2-(difluoromethyl)-1H-benzo[d]imidazol-1-yl)-6-morpholino-1,3,5-triazin-2-amine] | > 500 nM | 100 to 200 nM | A’ | 100 to 200 nM | A’ | > 500 nM | D’ | C’ | > 500 nM |
| CC(C)(CNc1nc(N2CCOCC2)nc(-n2c(C(F)F)nc3ccccc32)n1)c1ccccc1 [Compound A29, 4-(2-(difluoromethyl)-1H-benzo[d]imidazol-1-yl)-N-(2-methyl-2-phenylpropyl)-6-morpholino-1,3,5-triazin-2-amine] | > 500 nM | 200 to 500 nM | C’ | > 500 nM | D’ | > 500 nM | A’ | D’ | > 500 nM |
| CC(C)(Nc1nc(N2CCOCC2)nc(-n2c(C(F)F)nc3ccccc32)n1)C1(c2ccccc2)CC1 [Compound A30, 4-(2-(difluoromethyl)-1H-benzo[d]imidazol-1-yl)-N-(2-(1-phenylcyclopropyl)propan-2-yl)-6-morpholino-1,3,5-triazin-2-amine] | > 500 nM | 100 to 200 nM | A’ | 200 to 500 nM | B’ | > 500 nM | D’ | D’ | > 500 nM |

The remaining lines, values ahead:

| IC50 (PI3K alpha) | IC50 (PI3K delta) | α/δ ratio (PI3K delta) | IC50 (PI3K beta) | α/β ratio (PI3K beta) | IC50 (PI3K gamma) | β/δ ratio (PI3K delta) | γ/δ ratio (PI3K delta) | IC50 (mTOR) | Structure (SMILES) |
| --- | --- | --- | --- | --- | --- | --- | --- | --- | --- |
| > 500 nM | ≤ 100 nM | C’ | – | – | – | – | – | – | CC(Nc1nc(N2CCOCC2)nc(-n2c(C(F)F)nc3ccccc32)n1)c1ccccc1 (centres unmarked) [Compound A1, 4-(2-(difluoromethyl)-1H-benzo[d]imidazol-1-yl)-6-morpholino-N-(1-phenylethyl)-1,3,5-triazin-2-amine] |
| > 500 nM | 200 to 500 nM | D’ | > 500 nM | D’ | > 500 nM | A’ | D’ | > 500 nM | C[C@H](Nc1nc(N2CCOCC2)nc(-n2c(C(F)F)nc3ccccc32)n1)c1ccccc1 [Compound A2, (S)-4-(2-(difluoromethyl)-1H-benzo[d]imidazol-1-yl)-6-morpholino-N-(1-phenylethyl)-1,3,5-triazin-2-amine] |
| > 500 nM | > 500 nM | D’ | – | – | – | – | – | – | C[C@@H](Nc1nc(N2CCOCC2)nc(-n2c(C(F)F)nc3ccccc32)n1)c1ccccc1 [Compound A3, (R)-4-(2-(difluoromethyl)-1H-benzo[d]imidazol-1-yl)-6-morpholino-N-(1-phenylethyl)-1,3,5-triazin-2-amine] |
| 200 to 500 nM | ≤ 100 nM | D’ | – | – | – | – | – | – | COC(=O)[C@H](Nc1nc(N2CCOCC2)nc(-n2c(C(F)F)nc3ccccc32)n1)c1ccccc1 [Compound A11, (R)-methyl 2-((4-(2-(difluoromethyl)-1H-benzo[d]imidazol-1-yl)-6-morpholino-1,3,5-triazin-2-yl)amino)-2-phenylacetate] |
| 200 to 500 nM | 100 to 200 nM | D’ | ≤ 100 nM | C’ | 100 to 200 nM | D’ | D’ | > 500 nM | CC(C)(Cc1ccc2ccccc2c1)Nc1nc(N2CCOCC2)nc(-n2c(C(F)F)nc3ccccc32)n1 [Compound A26, 4-(2-(difluoromethyl)-1H-benzo[d]imidazol-1-yl)-N-(2-methyl-1-(naphthalen-2-yl)propan-2-yl)-6-morpholino-1,3,5-triazin-2-amine] |
| 100 to 200 nM | 100 to 200 nM | D’ | – | – | – | – | – | – | FC(F)c1nc2ccccc2n1-c1nc(NCc2ccccc2)nc(N2CCOCC2)n1 [Ref 1, N-benzyl-4-(2-(difluoromethyl)-1H-benzo[d]imidazol-1-yl)-6-morpholino-1,3,5-triazin-2-amine, reference compound] |
